These results are taken from US20050187188A1, “Methods for the treatment of a traumatic central nervous system injury” (Emory University, priority 2000, published 2005).

In test [1] the test system is rats with medial frontal cortical contusions. Briefly: Cerebral edema (brain tissue water content) after medial frontal cortex contusion, Example 1. The format is in vivo, rat. To be noted: 4 mg/kg in cyclodextrin, i.p. 1 h and s.c. 6 h post-injury; 2, 24 and 72 hours; compared to vehicle.
Description: Contusions to the medical frontal cortex (MFC) using a pneumatic impactor device were generated. Animals were anesthetized by injection of Nembutal (50 mg/kg, i.p) and placed in a stereotaxic apparatus, with body core temperature being maintained with a homeothermic heating blanket system. Using aseptic techniques, a midline incision was made in the scalp, and the fascia retracted to expose the cranium. A centered, bilateral craniotomy was made 3 mm anterior to bregma using a 6 mm diameter trephan. After the removal of the bone, the tip of the impactor was moved to AP:3.0; ML:0.0, checked for adequate clearance, retracted to its elevated position and lowered 3.5 mm DV, so it penetrated the cortex 2 mm. The contusion was made at a velocity of 2.25 m/s with a brain contact time of 0.5 seconds. Following this procedure, the wound cavity was thoroughly cleaned and all bleeding stopped before the fascia and scalp, were sutured closed. In all experiments, the rats' group identity was coded with regard to surgery and treatment to prevent experimenter bias during behavioral testing and later histological examination.
These experimental solutions were then diluted 1:1 with sterile water for a final concentration of HBC of 22.5%.
Sprague-Dawley male rats, approximately 90 days of age at the time of surgery, were used. Rats were housed in individual cages, with a 12:12 light:dark cycle. Food and water were provided ad libitum throughout the experiment. Control rats received sham surgeries and the rest received medial frontal cortical contusions as described in the general methods. The sham-operated controls were given vehicle (cyclodextrin). […] Treatment began one hour after the contusion was produced. […] Subsequently, a second subcutaneous injection 6 hours post-injury for absorption that is more gradual. […]
At 2, 24, and 72 hours the rats were anesthetized, decapitated, and their brains removed quickly from the cranial cavity. […] The brain was placed on a pre-weighed dish and the total weight of the sample was measured. […]
Test [2] relates to TNFα. Kind of test: TNFα mRNA expression in brain tissue after contusion, real-time quantitative PCR. In kind it is in vivo, rat. To be noted: 3 hours and 6 days post-injury. The text has this:
(§1) Neurosteroid injections were given at 1 hr and 6 hrs after the contusions, and continued once a day for up to 5 consecutive days post-injury.
(§2) Adult male SD rates received either bilateral prefrontal cortical contusions or sham surgeries. The neurosteroid injections were given at 1 hr and 6 hr after the contusions and continued once a day for up to 5 consecutive days post-injury. At 3 hr, 8 hr, 12 hr and 6 days post-injury, the rats were killed and their brains were processed for mRNA extraction. Expression of mRNA for IL-1β and TNFα were assessed using real-time quantitative PCR.

Test [3] concerns IL-1β. Kind of test: IL-1β mRNA expression in brain tissue after contusion, real-time quantitative PCR. The format is in vivo, rat.
Text: as §1, §2

Test [4] deals with rats with bilateral contusions of the medial prefrontal cortex. Kind of test: Morris water maze task, Example 6. The format is in vivo, rat. The method, then: (§3) Male Sprague-Dawley rats (300 g) were housed individually in wire cages and kept on a reverse light-dark cycle (0800-2000 h). Animals were assigned to one of four groups: (1) lesion (n=7); (2) lesion +3 days progesterone (LP3; n=7); (3) lesion +5 days progesterone (LP5; n=7); and (4) Sham (n=8). All procedures involving animals conformed to guidelines set forth in the Guide for the Care and Use of Laboratory Animals (U.S. Department of Health and Human Services, Pub no. 85-23, 1985) and were approved by the Emory University Institutional Animal Care and Use Committee.
Bilateral contusions of the medial prefrontal cortex were created by a pneumatic impactor device as previously described. Briefly, rats were given anesthetized with ketamine/xylazine (90 mg/kg; 10 mg/kg) and placed in a stereotaxic apparatus. A craniectomy (diameter 6 mm) was made over the midline of the prefrontal cortex with its center 1.5 mm AP to bregma. After removal of the bone, the tip of the impactor (diameter 5 mm) was moved to +3.0 mm AP; 1.0 mm ML (from bregma), and checked for adequate clearance. Trauma was produced by pneumatically activating the piston to impact −2.0 mm DV (from dura) at a velocity of 3 m/s with a brain contact time of 0.5 seconds.
Progesterone was dissolved in peanut oil (Sigma; 4 mg/kg) and injections were given at 1 and 6 hours post-injury and then once per day for either 3 or 5 consecutive days. Control animals received injections of vehicle at similar time-points. Animals were coded with regard to surgery and treatment to prevent experimenter bias during behavioral testing and histological examination.
Experienced individuals who were blind to treatment conditions of the study conducted all histological and behavioral analyses. All data were tested for normality and homoschedasticity before being analyzed by parametric analysis of variance (ANOVA). MWM results were analyzed using separate mixed-factorial (4 groups×5 days) analysis of variance (ANOVA) on each of the two 5-day testing periods (acquisition and retention respectively). Results of the BSN task were analyzed using the mixed-factorial ANOVA (4 groups×2 post-injury trials). […] Pearson r coefficients were calculated to determine whether significant correlations could be detected between histological (e.g., lesion size and cellular density) and behavioral parameters (e.g., acquisition and retention of the MWM task and measures of sensory neglect).
Beginning one week after surgery, spatial learning ability was assessed in the Morris water maze (MWM) task described previously. […] Animals were placed in the pool (nose facing the pool-wall) at one of four randomly determined starting positions (e.g.: N, S, E, W). […] Swim speed measures were recorded daily in order to delineate motor dysfunction from learning impairment.

Test [5] has the same test system. Kind of test: Bilateral sensory neglect (BSN) task, Example 6. In kind it is in vivo, rat. To be noted: 3 days (LP3); 6 and 20 days post injury. The method, then:
as §3
Bilateral contusions of the medial prefrontal cortex were created by a pneumatic impactor device as previously described. […]
Experienced individuals who were blind to treatment conditions of the study conducted all histological and behavioral analyses. All data were tested for normality and homoschedasticity before being analyzed by parametric analysis of variance (ANOVA). MWM results were analyzed using separate mixed-factorial (4 groups×5 days) analysis of variance (ANOVA) on each of the two 5-day testing periods (acquisition and retention respectively). Results of the BSN task were analyzed using the mixed-factorial ANOVA (4 groups×2 post-injury trials). […]
Measures of attentional abilities, using a bilateral sensory neglect (BSN) task, were recorded one day prior to surgery (baseline) and on postsurgical days 6 and 20. […]

Test [6] deals with traumatic brain injury. Briefly: Sticker removal task (tactile adhesive removal) dose response, Example 7. In kind it is in vivo, rat. The text has this: On the 7th and 27th days post-injury, the rats will be assessed on their responsivity to focal somatosensory stimuli by requiring them to remove sticky paper from their forelimbs. Pairs of circular adhesive papers will be attached to the distal-radial areas of each forelimb and the animal will be returned to its home cage while the investigator holds the forepaws apart and keeps them away from the rat's mouth. The rats' latencies to remove the stimuli with their mouth will be recorded. The maximum length of a “test” trial will be 2 minutes, with each rat receiving four trials with 2 minute intertrial intervals.
Surgery to induce a traumatic brain injury was performed as outlined in Example 1. Behavior testing using the Morris Water Maize was performed as outlined in Example 1 and the methods for the tactical adhesive removal were performed as outlined in Example 4.

The test system of test [7] is contusion injury. To be noted: cited from earlier work.
Test [8] deals with ischemic injury. To be noted: following ischemic injury in rats; cited from earlier work.
The subject of test [9] is blood-brain barrier (BBB). To be noted: in vitro; macromolecules vs ions such as sodium; cited from earlier work.

Take `CC(=O)[C@H]1CC[C@H]2[C@@H]3CCC4=CC(=O)CC[C@]4(C)[C@H]3CC[C@]12C` [progesterone]: the cerebral edema entry in test [1] was “intermediate between injured controls and the allopregnanolone-treated injured rats”. The “TNFα mRNA expression” value in test [2] was “reduced the expression of both IL-1β and TNFα”. Moreover, the “IL-1β mRNA expression” value in test [3] (3 hours and 6 days post-injury) is “reduced the expression of both IL-1β and TNFα”; in [3] (8 hrs post-injury) it was “but not progesterone, enhanced”. Moreover, the “spatial learning performance, initial 5-day acquisition phase” value in test [4] (4 mg/kg in peanut oil, 3 or 5 days, all injured groups) is “displayed deficits in spatial learning performance as compared to control animals”. Besides, in test [4] (4 mg/kg in peanut oil, 5 days (LP5)), the “spatial learning performance, second 5-day trial block” value is reported as “improved spatial learning performance”. The swim speed result in test [4] (3 or 5 days, any day of testing) is recorded as “no between-group differences”. Besides, the “thigmotaxic (wall-hugging) swim patterns” value in [4] (5 days (LP5), last 2 days of the second phase of MWM testing) is “reduction of thigmotaxic behavior”. Besides, the BSN task performance entry in [5] was “impaired on this task compared to control animals”. The “sticker removal task (sensory neglect)” value in test [6] (high dose 32 mg/kg in cyclodextrin-containing carrier) is recorded as “degraded to lesion control levels”; in [6] (low dose 8 mg/kg in cyclodextrin-containing carrier) it was “initially produce behavioral recovery”; in test [6] (moderate dose 16 mg/kg in cyclodextrin-containing carrier) it was “improved to sham levels by day 21 post-injury”. Also, the “post injury cerebral edema” value in test [7] (following a contusion injury) is “reduces the severity of post injury cerebral edema”. The “neuronal loss in the LMDN” value in test [7] (previous studies with this injury model) was “can significantly reduce this neuronal loss”. Besides, the “cell damage and neurological deficit” value in [8] was “reduce cell damage and neurological deficit”. Besides, the “permeability of the BBB” value in test [9] is given as “reduce the permeability of the BBB to macromolecules, but not ions”.
